From patent publication US20230219965A1 (KSQ Therapeutics, Inc., priority 2020, published 2023)

Target: USP1/UAF1 enzyme (Homo sapiens, UniProt O94782)
Assay: USP1/UAF1 deubiquitination assay (ubiquitin-rhodamine 110 substrate)
Assay type: biochemical
Details: read-out: USP1 IC50 (Ub-Rho)
Experimental: Certain Compounds of the Disclosure were assessed for USP1/UAF1 activity in a Ubiquitin Rhodamine assay modified from those described previously.
Deubiquitinase activity was measured using ubiquitin-rhodamine 110 as a substrate. Cleavage of the amide bond between rhodamine and the c-terminal glycine of ubiquitin yields an increase in fluorescence signal. The assay was conducted in 20 μl total volume of assay buffer (50 mM Tris-HCl, pH 7.8, 0.5 mM EDTA, 0.01% Bovine Serum Albumin, 1 mM DTT, 0.01% Tween-20), and 0.05 nM USP1/UAF1 enzyme. Reaction was initiated by addition of 150 nM Ubiquitin-rhodamine (Boston Biochem) substrate.
Compounds of the Disclosure, dissolved in DMSO were tested in dose response format, beginning at […].
The example compounds listed below were added to enzyme/assay buffer mix and incubated 10 min. Substrate mix was added, and reaction mix was read in kinetic mode for 30 min at Ex480/Em540 and IC50 response curves were plotted.
Data for all assay formats was calculated as percent inhibition compared with control wells. Percent inhibition was calculated using the following equation: % inhibition=100×[1−(X−min)/(max−min)], where X is the raw data readout, min is the average of the no enzyme control wells (n=32), max is the average of the DMSO control well (n=32). IC50 values were calculated using the standard four parameter curve fitting algorithm in either Prism GraphPad (La Jolla, Calif.) software, or Collaborative Drug Discovery (Burlingame, Calif.) CDD Vault. See Chem. Biol. 20(1): 55-62 (Jan. 24, 2013); Bioorg. Med. Chem. Lett. 23(20): 5660-5666 (Oct. 15, 2013).

Chain of USP1/UAF1 enzyme (O94782 whole entry): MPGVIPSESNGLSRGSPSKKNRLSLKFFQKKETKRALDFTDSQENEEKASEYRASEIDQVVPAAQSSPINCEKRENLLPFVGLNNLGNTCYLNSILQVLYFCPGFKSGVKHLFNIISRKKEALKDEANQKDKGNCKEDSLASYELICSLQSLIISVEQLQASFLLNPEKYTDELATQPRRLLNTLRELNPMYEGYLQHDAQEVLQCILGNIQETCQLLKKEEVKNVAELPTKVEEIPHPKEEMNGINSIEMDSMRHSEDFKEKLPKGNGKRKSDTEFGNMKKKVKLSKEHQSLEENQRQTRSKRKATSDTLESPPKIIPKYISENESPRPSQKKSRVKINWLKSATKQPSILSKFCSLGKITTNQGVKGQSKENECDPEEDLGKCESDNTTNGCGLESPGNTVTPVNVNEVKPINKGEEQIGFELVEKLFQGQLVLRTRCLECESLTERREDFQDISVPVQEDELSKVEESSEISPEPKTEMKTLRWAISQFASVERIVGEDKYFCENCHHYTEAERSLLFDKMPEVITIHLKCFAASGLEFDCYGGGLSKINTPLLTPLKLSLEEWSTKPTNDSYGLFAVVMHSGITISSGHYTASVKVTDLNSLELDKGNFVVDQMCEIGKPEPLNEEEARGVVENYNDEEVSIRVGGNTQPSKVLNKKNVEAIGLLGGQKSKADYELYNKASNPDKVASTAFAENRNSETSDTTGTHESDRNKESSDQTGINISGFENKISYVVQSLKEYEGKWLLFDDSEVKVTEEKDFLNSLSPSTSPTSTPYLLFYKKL
Chain of USP1/UAF1 enzyme (Q8TAF3 whole entry partner): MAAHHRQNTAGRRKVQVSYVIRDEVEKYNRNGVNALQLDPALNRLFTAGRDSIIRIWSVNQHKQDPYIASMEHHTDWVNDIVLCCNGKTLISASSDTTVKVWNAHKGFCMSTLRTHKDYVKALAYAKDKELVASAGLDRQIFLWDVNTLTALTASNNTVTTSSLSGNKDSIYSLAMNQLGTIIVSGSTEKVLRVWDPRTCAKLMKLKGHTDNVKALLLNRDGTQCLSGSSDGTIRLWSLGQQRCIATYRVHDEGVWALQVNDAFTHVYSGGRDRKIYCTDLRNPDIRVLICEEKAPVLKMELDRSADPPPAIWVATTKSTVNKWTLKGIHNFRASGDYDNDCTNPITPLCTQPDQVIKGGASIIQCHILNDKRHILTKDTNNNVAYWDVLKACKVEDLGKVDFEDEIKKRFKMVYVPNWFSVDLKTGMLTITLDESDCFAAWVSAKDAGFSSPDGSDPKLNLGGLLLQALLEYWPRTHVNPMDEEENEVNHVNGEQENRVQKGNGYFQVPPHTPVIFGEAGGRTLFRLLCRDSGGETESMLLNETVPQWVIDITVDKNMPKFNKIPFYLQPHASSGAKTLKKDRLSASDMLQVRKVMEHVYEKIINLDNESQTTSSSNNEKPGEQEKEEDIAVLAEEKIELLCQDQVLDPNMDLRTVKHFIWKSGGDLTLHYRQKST

Row | Compound | IC50
1 | COc1cccnc1-c1ccc(CN2C(=O)CCn3nc(-c4c(OC)ncnc4C4CC4)nc32)cc1Cl [Example 306] | 100 to 500 nM
2 | COc1cccnc1-c1ccc(CN2C(=O)CCn3nc(-c4c(OC)ncnc4C4CC4)nc32)cc1F [Example 308] | 100 to 500 nM
3 | COc1cccnc1-c1ccc(CN2C(=O)CCn3nc(-c4c(OC)ncnc4C4CC4)cc32)cc1Cl [Example 313] | 100 to 500 nM
4 | COc1cccnc1-c1ccc(CN2C(=O)CCn3nc(-c4c(OC)ncnc4C4CC4)cc32)cc1F [Example 317] | 100 to 500 nM
5 | CC(C)n1ncc(Cl)c1-c1nc2n(n1)CCC(=O)N2Cc1ccc(-c2ncccc2OCC(F)F)cc1 [Example 322] | 100 to 500 nM
6 | CC(C)n1cc(C(F)(F)F)nc1-c1ccc(Cn2c(=O)ccn3nc(-c4c(OC(F)F)ncnc4C4CC4)nc23)cc1 [Example 344, 2-(4-cyclopropyl-6-(difluoromethoxy)pyrimidin-5-yl)-4-(4-(1-isopropyl-4-(trifluoromethyl)-1H-imidazol-2-yl)benzyl)-[1,2,4]triazolo[1,5-a]pyrimidin-5(4H)-one] | < 100 nM
7 | CCn1cc(C(F)(F)F)nc1-c1ccc(CC2NCCn3nc(-c4c(OC)ncnc4C4CC4)cc32)cc1 (stereo not drawn) [Example 361, 2-(4-cyclopropyl-6-methoxypyrimidin-5-yl)-4-(4-(1-ethyl-4-(trifluoromethyl)-1H-imidazol-2-yl)benzyl)-4,5,6,7-tetrahydropyrazolo[1,5-a]pyrazine] | 100 to 500 nM
8 | CC(CF)n1cc(C(F)(F)F)nc1-c1ccc(CN2C(=O)CCn3nc(-c4c(OC(F)F)ncnc4C4CC4)nc32)cc1 (stereo not drawn) [Example 366, 2-(4-cyclopropyl-6-(difluoromethoxy)pyrimidin-5-yl)-4-(4-(1-(1-fluoropropan-2-yl)-4-(trifluoromethyl)-1H-imidazol-2-yl)benzyl)-6,7-dihydro-[1,2,4]triazolo[1,5-a]pyrimidin-5(4H)-one] | < 100 nM
9 | O=C1CCn2nc(-c3c(OC(F)F)ncnc3C3CC3)nc2N1Cc1ccc(-c2nc(C(F)(F)F)cn2CCF)cc1 [Example 367, 2-(4-cyclopropyl-6-(difluoromethoxy)pyrimidin-5-yl)-4-(4-(1-(2-fluoroethyl)-4-(trifluoromethyl)-1H-imidazol-2-yl)benzyl)-6,7-dihydro-[1,2,4]triazolo[1,5-a]pyrimidin-5(4H)-one] | < 100 nM
10 | Cn1cc(C(F)(F)F)nc1-c1ccc(CN2C(=O)CCn3nc(-c4c(OC(F)F)ncnc4C4CC4)nc32)cc1 [Example 368, 2-(4-cyclopropyl-6-(difluoromethoxy)pyrimidin-5-yl)-4-(4-(1-methyl-4-(trifluoromethyl)-1H-imidazol-2-yl)benzyl)-6,7-dihydro-[1,2,4]triazolo[1,5-a]pyrimidin-5(4H)-one] | < 100 nM
11 | CC(C)n1cc(C(F)(F)F)nc1-c1ccc(CN2C(=O)CCn3nc(-c4c(OC(F)F)ncnc4C4CC4)nc32)cc1 [Example 369, 2-(4-cyclopropyl-6-(difluoromethoxy)pyrimidin-5-yl)-4-(4-(1-isopropyl-4-(trifluoromethyl)-1H-imidazol-2-yl)benzyl)-6,7-dihydro-[1,2,4]triazolo[1,5-a]pyrimidin-5(4H)-one] | < 100 nM
12 | COc1ncnc(C2CC2)c1-c1nc2n(n1)CCC(=O)N2C(C)c1ccc(-n2nc(C(F)(F)F)cc2OC)cc1 (stereo not drawn) [Example 372, 2-(4-cyclopropyl-6-methoxypyrimidin-5-yl)-4-(1-(4-(5-methoxy-3-(trifluoromethyl)-1H-pyrazol-1-yl)phenyl)ethyl)-6,7-dihydro-[1,2,4]triazolo[1,5-a]pyrimidin-5(4H)-one] | < 100 nM
13 | CCn1cc(C(F)(F)F)nc1-c1ccc(CN2C(=O)CCn3nc(-c4c(C5CC5)ccnc4OC(F)F)nc32)cc1 [Example 373, 2-(4-cyclopropyl-2-(difluoromethoxy)pyridin-3-yl)-4-(4-(1-ethyl-4-(trifluoromethyl)-1H-imidazol-2-yl)benzyl)-6,7-dihydro-[1,2,4]triazolo[1,5-a]pyrimidin-5(4H)-one] | 100 to 500 nM
14 | [2H]C([2H])([2H])C([2H])(n1cc(C(F)(F)F)nc1-c1ccc(CN2C(=O)CCn3nc(-c4c(OC(F)F)ncnc4C4CC4)nc32)cc1)C([2H])([2H])[2H] [Example 374, 2-(4-cyclopropyl-6-(difluoromethoxy)pyrimidin-5-yl)-4-(4-(1-(propan-2-yl-d7)-4-(trifluoromethyl)-1H-imidazol-2-yl)benzyl)-6,7-dihydro-[1,2,4]triazolo[1,5-a]pyrimidin-5(4H)-one] | < 100 nM
15 | [2H]C([2H])([2H])C([2H])([2H])n1cc(C(F)(F)F)nc1-c1ccc(CN2C(=O)CCn3nc(-c4c(OC(F)F)ncnc4C4CC4)nc32)cc1 [Example 375, 2-(4-cyclopropyl-6-(difluoromethoxy)pyrimidin-5-yl)-4-(4-(1-(ethyl-d5)-4-(trifluoromethyl)-1H-imidazol-2-yl)benzyl)-6,7-dihydro-[1,2,4]triazolo[1,5-a]pyrimidin-5(4H)-one] | < 100 nM

Second part, the compound after the results:

Row | IC50 | Compound
16 | 100 to 500 nM | COCc1cccnc1-c1ccc(CN2C(=O)CCn3nc(-c4c(Cl)cnn4C(C)C)cc32)cc1Cl [Example 300]
17 | 100 to 500 nM | COc1cc(C)cnc1-c1ccc(CN2C(=O)CCn3nc(-c4c(Cl)cnn4C(C)C)cc32)cc1Cl [Example 301]
18 | 100 to 500 nM | CC(C)Oc1cccnc1-c1ccc(CN2C(=O)CCn3nc(-c4c(Cl)cnn4C(C)C)nc32)cc1Cl [Example 302]
19 | 100 to 500 nM | CC(C)n1ccnc1-c1ccc(CN2C(=O)CCn3nc(-c4c(Cl)cnn4C(C)C)cc32)cc1Cl [Example 303]
20 | > 500 nM | COc1cc(CN2C(=O)CCn3nc(-c4c(Cl)cnn4C(C)C)cc32)ccc1-c1ncccc1Cl [Example 311]
21 | > 500 nM | CCNc1ccc(-c2ccc(CN3C(=O)CCn4nc(-c5c(Cl)cnn5C(C)C)cc43)cc2Cl)nn1 [Example 314]
22 | > 500 nM | CC(C)n1cnc(-c2ccc(CN3C(=O)CCn4nc(-c5c(Cl)cnn5C(C)C)cc43)cc2Cl)c1 [Example 315]
23 | 100 to 500 nM | CC(C)n1ncc(Cl)c1-c1cc2n(n1)CCC(=O)N2Cc1ccc(-c2nc(C(F)(F)F)ccc2F)c(Cl)c1 [Example 316]
24 | > 500 nM | COc1cncnc1-c1ccc(CN2C(=O)CCn3nc(-c4c(Cl)cnn4C(C)C)cc32)cc1Cl [Example 318]
25 | > 500 nM | COc1ccc(-c2ccc(CN3C(=O)CCn4nc(-c5c(Cl)cnn5C(C)C)cc43)cc2Cl)nn1 [Example 319]
26 | 100 to 500 nM | CC(C)n1ncc(Cl)c1-c1cc2n(n1)CCC(=O)N2Cc1ccc(-c2ccn(S(=O)(=O)N(C)C)n2)c(Cl)c1 [Example 320]
27 | 100 to 500 nM | CCn1cc(C(F)(F)F)nc1-c1ccc([C@@H](C)N2C(=O)CCn3nc(-c4c(C#N)cnn4C(C)C)cc32)cc1F [Example 326, (R)-5-(4-(1-(4-(1-ethyl-4-(trifluoromethyl)-1H-imidazol-2-yl)-3-fluorophenyl)ethyl)-5-oxo-4,5,6,7-tetrahydropyrazolo[1,5-α]pyrimidin-2-yl)-1-isopropyl-1H-pyrazole-4-carbonitrile]
28 | 100 to 500 nM | CCn1cc(C(F)(F)F)nc1-c1ccc(CN2C(=O)CCn3nc(-c4c(OC(F)F)cnn4C(C)C)cc32)cc1F [Example 329, 2-(4-(difluoromethoxy)-1-isopropyl-1H-pyrazol-5-yl)-4-(4-(1-ethyl-4-(trifluoromethyl)-1H-imidazol-2-yl)-3-fluorobenzyl)-6,7-dihydropyrazolo[1,5-α]pyrimidin-5(4H)-one]
29 | > 500 nM | CCn1cc(C(F)(F)F)nc1-c1cnc(CN2C(=O)CCn3nc(-c4c(Cl)cnn4C(C)C)cc32)nc1 [Example 354, 2-(4-chloro-1-isopropyl-1H-pyrazol-5-yl)-4-((5-(1-ethyl-4-(trifluoromethyl)-1H-imidazol-2-yl)pyrimidin-2-yl)methyl)-6,7-dihydropyrazolo[1,5-α]pyrimidin-5(4H)-one]
30 | 100 to 500 nM | CCn1cc(C(F)(F)F)nc1-c1ccc(N(C)C2CCCc3nn(-c4ccccc4C(C)C)cc32)cc1F (stereo not drawn) [Example 356, N-(4-(1-ethyl-4-(trifluoromethyl)-1H-imidazol-2-yl)-3-fluorophenyl)-2-(2-isopropylphenyl)-N-methyl-4,5,6,7-tetrahydro-2H-indazol-4-amine]
31 | 100 to 500 nM | CCn1cc(C(F)(F)F)nc1-c1ccc(CC2NCCn3nc(-c4c(Cl)cnn4C(C)C)cc32)cc1 (stereo not drawn) [Example 359, 2-(4-chloro-1-isopropyl-1H-pyrazol-5-yl)-4-(4-(1-ethyl-4-(trifluoromethyl)-1H-imidazol-2-yl)benzyl)-4,5,6,7-tetrahydropyrazolo[1,5-α]pyrazine]
32 | < 100 nM | CCn1cc(C(F)(F)F)nc1-c1ccc(CN2C(=O)CCn3nc(-c4c(OC)ncnc4OC(F)F)nc32)cc1 [Example 376, 2-(4-(difluoromethoxy)-6-methoxypyrimidin-5-yl)-4-(4-(1-ethyl-4-(trifluoromethyl)-1H-imidazol-2-yl)benzyl)-6,7-dihydro-[1,2,4]triazolo[1,5-a]pyrimidin-5(4H)-one]
33 | < 100 nM | Cn1cc(C(F)(F)F)nc1-c1ccc(CN2C(=O)CCn3nc(-c4c(OC(F)F)ncnc4C4CC4)nc32)cc1F [Example 377, 2-(4-cyclopropyl-6-(difluoromethoxy)pyrimidin-5-yl)-4-(3-fluoro-4-(1-methyl-4-(trifluoromethyl)-1H-imidazol-2-yl)benzyl)-6,7-dihydro-[1,2,4]triazolo[1,5-a]pyrimidin-5(4H)-one]
